Patent publication US20040067565A1, “Selective functionalization of hydrocarbons with isolated oxygenases and mediator based regeneration” (priority 2002, published 2004)

Experiment: [Cp*Rh(bpy)(H2O)]2+ catalyzed reduction of FAD leading to hydrogen peroxide
Method: (§1) Hydrogen peroxide was determined enzymatically, based on the method by Saito et al.. Samples were mixed with a solution of 0.6 mM 4-amino antipyrine, 9 mM phenol, and 6 U×ml^−1 peroxidase from Coprinus cinereus. After one minute incubation at room temperature the absorption at 550 nm was measured.
0.2 mM [Cp*Rh(bpy)(H2O)]^2+, 0.05 mM FAD, and 1.16 μM StyA in. 50 mM potassium phosphate buffer with 150 mM sodium formate were incubated at 37° C. and agitation at 1500 rpm. At intervals samples were taken and analyzed for their hydrogen peroxide concentration. From the results a catalytic performance of 48 turnovers per hour for [Cp*Rh(bpy)(H2O)]^2+ was calculated.
In a second experiments a reaction mixture of this composition was supplemented with 2 mM styrene. After 15 min the reaction was stopped and analyzed for hydrogen peroxide and styrene oxide. 0.28 mM styrene oxide and […] were found at this time corresponding to an overall catalytic activity of [Cp*Rh(bpy)(H2O)]^2+ of 47 turnovers per hour.
as §1, with “peroxide produced” for “peroxide”, “enzymatically with a modified assay by” for “enzymatically, based on the”
0.2 mM [Cp*Rh(bpy)(H2O)]^2+, 0.225 mM FAD dissolved in O2 saturated potassium phosphate buffer were thermostated at 37° C. in an air-tight reaction vessel (O2-measurements: 2 ml, UV-measurements: 1 ml quartz kuvette). Reactions were started on addition of sodium formate stock solution (final concentration: 150 mM).
1 ml of 19 μM Cp*Rh(bpy)(H2O)]^2+ and 0-200 μM FAD in 50 mM potassium phosphate buffer (pH 7.0, c(NaHCO2)=150 mM) are placed in a 1.5 ml Eppendorf vial and incubated at 37° C. and agitation at 1500 rpm. At intervals […] samples are withdrawn and analyzed for their H2O2 content (FIG. 17).

**Q.** What does the source list for Cc1c(C)c(C)[c-](C)c1C.O.[Rh+3].c1ccc(-c2ccccn2)nc1 [[Cp*Rh(bpy)(H2O)]^2+]?
**A.** catalytic performance (hydrogen peroxide formation) (0.2 mM [Cp*Rh(bpy)(H2O)]2+, 0.05 mM FAD, 1.16 μM StyA, 150 mM sodium formate, 37 °C, no styrene): 48 turnovers per hour; catalytic activities from initial H2O2-formation rates (37 °C, c(NaHCO2) 0.15 M, 19 μM [Cp*Rh(bpy)(H2O)]2+, 0-200 μM FAD): 69.9±2.5 catalytic cycles per hour; overall catalytic activity (hydrogen peroxide and styrene oxide) (as E39, supplemented with 2 mM styrene, after 15 min): 47 turnovers per hour
